According to patent US20050261319A1, “Novel 2-amino-4-quinazolinones and 2-amino-4-oxoquinazolones as LXR nuclear receptor binding compounds with partial agonistic properties” (priority 2002, published 2005):
Read-outs that look alike come from different tables or passages of the source.

Tests used:
Assay type in all cases: cell-based
[1] = system: ABCA1 and ABCG1 in THP-1 cells; experiment: mRNA content of LXR target genes ABCA1 and ABCG1 in THP-1 cells (TaqMan)
Experimental: THP-1 (3×10^5 cells per dish) cells were seeded in […] RPMI-1640 medium (ATTC, Cat. No. 30-2001) containing 10% FCS (GIBCO) and 100 nM TPA and cultivated at 37° C. in 5% CO2 for 24 or 48 hours. HepG2 (4.5×10^5 cells per dish) were seeded in 24 well dishes in 3 ml DMEM Medium containing 10% FCS (GIBCO) and cultivated at 37° C. in 5% CO2 for 48 hours as indicated in FIG. 8B or until they are approx. 60% confluent.
The medium was then removed and replaced with medium containing 10% charcoal/stripped FCS (Hyclone) for 12 h.
LXR compounds are dissolved in DMSO, with the final solvent concentration never exceeding 0.125%. All treatments are done in triplicates and experiments repeated twice. Total RNA is extracted using the Qiagen Rneasy Mini Kit and treated with DNase (DNA free kit, Ambion). RNA is reverse transcribed with Oligo (dT) primer and real-time reverse transcription PCR (TaqMan) is performed using the ABI Prism 7900HT Sequence Detection System and reagents supplied by Applied Biosystems. mRNA steady state levels are normalised to H3 histone (H3F3A) expression levels.
The sequences of forward primers, reverse primers and TaqMan probes are as follows

THP-1 macrophages = experiment: Cholesterol efflux from differentiated THP-1 macrophages; conditions: ApoA1, 10 uM, 24 h
Experimental: Methods: Cultures of the monocyte-macrophage cell line and the hepatocytes HepG2 are obtained from the American Type tissue Culture Collection, Rockville, Md. and were grown in RPMI 1640 medium supplemented with 10% fetal bovine serum, 10 mM HEPES, 2 mM pyruvate, 50 uM (3-Mercaptoethanol (THP-1) and Minimum essential medium (Eagle) with 2 mM L-glutamine and Earle's BSS supplemented with 10% fetal bovine serum, 2 mM glutamin, 0.1 mM non-essential amino acids, 1 mM sodium pyruvate (HepG2), respectively, at 37° C. in 5% CO2. THP-1 cells are differentiated into macrophages by addition of 100 nM Phorbol 12-Myristate 13-Acetate (PMA; Sigma P8139) and PMA included in the medium of all subsequent experiments to maintain differentiation. For cholesterol efflux measurements and triglyceride analysis cells are seeded in 6 well plates at 1.8×10^6 cells (THP-1) and 1×10^6 cells (HepG2) per well, respectively. CHOLESTEROL EFFLUX THP-1 cells are seeded in 6 well plates at 1×10^6 cells per well in RPMI 1640 medium containing 10% FCS and 100 nM TPA for 72 h. After washing with PBS cells are incubated 24 h with fresh in RPMI 1640 medium containing 10% FCS and 100 nM TPA. […] Medium is collected, centrifuged to remove cell debris and assayed for cholesterol using a commercial fluorometric kit (Molecular Probes A-12216). The remaining cellular proteins are lysed with 0.3 NNaOH and protein content measured with the Biorad Bradford reagent. THP-1 (1×10^6 cells per dish) cells were seeded in 6 well dishes in 3 ml modified RPMI 1640 medium (ATTC, Cat. […] After incubation for 24 hours, total cholesterol was determined from cell supernatant in each of the wells using an enzymatic assay with fluorescence read-out for the determination of cholesterol (Amplex Red Cholesterol Assay Kit (A-12213). The fluorescence readout per mg of total protein content as determined from cells that were present in the respective well are shown in FIGS. 9 or 11 as an example.

HepG2 liver cells = experiment: Triglyceride assay in HepG2 cells; conditions: 24 h, 25 pM
Experimental: Methods: Cultures of the monocyte-macrophage cell line and the hepatocytes HepG2 are obtained from the American Type tissue Culture Collection, Rockville, Md. and were grown in RPMI 1640 medium supplemented with 10% fetal bovine serum, 10 mM HEPES, 2 mM pyruvate, 50 uM (3-Mercaptoethanol (THP-1) and Minimum essential medium (Eagle) with 2 mM L-glutamine and Earle's BSS supplemented with 10% fetal bovine serum, 2 mM glutamin, 0.1 mM non-essential amino acids, 1 mM sodium pyruvate (HepG2), respectively, at 37° C. in 5% CO2.
For cholesterol efflux measurements and triglyceride analysis cells are seeded in 6 well plates at 1.8×10^6 cells (THP-1) and 1×10^6 cells (HepG2) per well, respectively.
TRIGLYCERIDE ASSAY HepG2 cells are seeded in poly-L-Lysine coated 6 well plates at 1×10^6 cells per well in EMEM medium containing 10% FCS until they were appr. 60% confluent. Before treatment with LXR compounds growth medium is changed to medium containing 10% charcoal/dextran-stripped FCS for 12 h. Treatment is done for 24 h in medium containing 10% charcoal/dextran-stripped FCS. Cells are washed twice with ice-cold PBS/0.2% BSA and twice with cold PBS and all liquid carefully removed. Triglyceride are extracted with 1.5 ml hexane/isopropanol=3: 2 per well with gentle shaking for 2-3 h at RT according to Pan et al. (2002) JBC277, 4413-4421 and Goti et al. (1998) Biochem J, 332, 57-65. The extraction solution is collected, dried under vacuum and redissolved in isopropanol/1.5% triton. The remaining cellular proteins are lysed with 0.3 N NaOH and protein content measured with the Biorad Bradford reagent.
Triglyceride levels are measured as esterified glycerol using a commercial enzymatic colorimetric kit (Sigma 343-25P). In a preliminary assay it is checked by omitting the lipase enzyme that contribution of free glycerol is negligible.

| SMILES | selectivity of upregulation of ABCA1 and ABCG1 in THP-1 cells versus FAS and SREBP-1c in HepG2 cells [1] | selectivity of upregulation of ABCA1 and ABCG1 in THP-1 cells versus FAS and SREBP-1c in HepG2 cells ([1]; listed as TR1040001892) | cholesterol export (THP-1 macrophages) | triglyceride mass (HepG2 liver cells) | selectivity of upregulation of ABCA1 and ABCG1 in THP-1 cells versus FAS and SREBP-1c in HepG2 cells ([1]; listed as TR1040011382) |
| --- | --- | --- | --- | --- | --- |
| C=CCn1c(N2C3CC(C)(C)CC2(C)C3)nc2ccc(I)cc2c1=O (centres unmarked) [formula (9)] | selective upregulation | selective transcriptional effect | marked increase | do not cause a significant increase | – |
| CC(C)n1c(N2C3CC(C)(C)CC2(C)C3)nc2ccc(I)cc2c1=O (centres unmarked) [formula (10)] | selective upregulation | – | marked increase | do not cause a significant increase | selective transcriptional effect |
| CCCn1c(N2[C@@H]3CC(C)(C)C[C@@]2(C)C3)nc2cccc(F)c2c1=O [formula (11)] | reduced selectivity | – | marked increase | slight increase | – |
| C=CCn1c(N2[C@@H]3CC(C)(C)C[C@@]2(C)C3)nc2cccc(F)c2c1=O [formula (12)] | reduced selectivity | – | marked increase | slight increase | – |
